Laboratory results published in patent publication US20250136574A1, “SELECTIVE AGENTS TARGETING MYCOBACTERIUM TUBERCULOSIS” (priority 2022, published 2025).
Where two headings read alike, the source gives them in different places. Marks after values point to notes of the source that are not given here.

How the values were obtained:
wild-type (WT) Mtb = assay type: cell-based, Mycobacterium tuberculosis
Vero cells = assay: CC50 cytotoxicity, Promega CellTiter-Glo Luminescent Cell Viability Assay; assay type: cell-based, African green monkey; conditions: for selectivity index (SI): ratio of CC50 in Vero cells to MABA IC50 in Mtb; for CC50: 72-hour incubation, CellTiter-Glo, n = 3
Procedure: (§1) Cytotoxicity assays were conducted to measure toxicity of compounds at single concentration in Vero TMPRSS2 cells by using quantitation of ATP to indicate metabolically active cells. Vero cells (derived from African Green Monkey kidney epithelial tissue) were grown in Dulbecco's Modified Eagle Medium (DMEM) supplemented with 10% fetal bovine serum (FBS), 10 mM HEPES buffered saline, and 2 mM L-glutamine. 5,000 cells per well were seeded into a 96-well plate containing two-fold titrations of compounds. The concentration of DMSO was maintained at 0.5% for all wells to avoid toxicity. The plates were incubated for 72 hours, at which point they were acclimatized to room temperature for 30 minutes. 25 μL of the substrate/buffer solution from the Promega CellTiter-Glo Luminescent Cell Viability Assay kit was added to each well. The plates were shaken at a low orbital speed for 3 minutes and let rest at room temperature for 10 minutes, after which luminescence was measured using a BioTek Synergy H1 Microplate Reader H1M. The positive control was defined as wells containing cells without compounds.
(§2) Percent viability was input into PRISM GraphPad to calculate CC50 values by plotting as a non-linear regression curve.
(§3) Given the toxicity of an initial hit compound in mammalian cells and the potential concern for toxicity more generally with nitro-containing drugs, the selected compounds were also examined for toxicity in a mammalian cell line using Promega's Cell Titer-Glo assay to assess cellular ATP levels as a read-out of viability. […] A selectivity index (SI) was then calculated for each compound by determining the ratio of the CC50 in Vero cells to the MABA IC50 in Mtb, where the larger the SI, the safer the compound is in eukaryotic cells relative to its effective dose. […] Therefore, not only were the SAR efforts successful in identifying compounds with increased potency against Mtb, but also, the toxicity concerns of the original hit compound were overcome.

[1] = as above; assay type: cell-based, African green monkey; conditions: African green monkey, Vero cells; 72-hour incubation, CellTiter-Glo, n = 3
Procedure: as §1, §2, §3

[2] = test system: wild-type (WT) Mtb Erdman strain; assay: MABA, Mtb Erdman strain; assay type: cell-based; conditions: Mycobacterium tuberculosis
PBS solubility = conditions: highest concentration with no detectable precipitate; phosphate-buffered saline
Plasma stability, human = conditions: n = 1
[3] = Liver microsomal stability, mouse; conditions: mouse liver microsomes, n = 1
[4] = Liver microsomal stability, human; conditions: human liver microsomes, n = 1
Plasma stability, mouse = conditions: n = 1
[5] = test system: wild-type (WT) Mtb HN878 strain; assay: MABA, Mtb HN878 strain; assay type: cell-based; conditions: Mycobacterium tuberculosis; read-out: IC50 ± S.D. (μM) HN878
[6] = read-out: IC50 S.D. (μM) Mtb Erdman strain
[7] = read-out: IC50 ± S.D. (μM) Erdman

CCCCCCC#Cc1cncc(-c2nnc(SCc3ccc(Cl)cc3[N+](=O)[O-])n2C)c1
IC50 (wild-type (WT) Mtb): > 200 µM

CCCCCCC#Cc1cncc(-c2nnc(SCc3cc([N+](=O)[O-])cc(C(F)(F)F)c3)n2C)c1
IC50 (wild-type (WT) Mtb): > 200 µM

CCCCCCC#Cc1cncc(-c2nnc(Sc3ccc([N+](=O)[O-])c4nonc34)n2C)c1
IC50 (wild-type (WT) Mtb): 27 µM

CCCCCCC#Cc1cncc(-c2nnc(SCc3ccc4nonc4c3)n2C)c1
IC50 (wild-type (WT) Mtb): > 200 µM

CCCCCCC#Cc1cncc(-c2nnc(SCc3ccc(Cl)cc3)n2CC)c1
IC50 (wild-type (WT) Mtb): 4.7 µM

CCCCCCC#Cc1cncc(-c2nnc(SCc3ccc(Cl)cc3)n2CCCC)c1
IC50 (wild-type (WT) Mtb): > 200 µM

CCCCCCC#Cc1cncc(-c2nnc(SCc3ccc(Cl)cc3)n2-c2ccccc2)c1
IC50 (wild-type (WT) Mtb): > 200 µM

CCCCCCC#Cc1cncc(-c2nnc(SCc3ccc(Cl)cc3)n2Cc2ccccc2)c1
IC50 (wild-type (WT) Mtb): > 200 µM

Cn1c(SCc2ccc(Cl)cc2)nnc1-c1cccnc1
IC50 (wild-type (WT) Mtb): > 200 µM

Cn1c(SCc2ccc(Cl)cc2)nnc1-c1cncc(Br)c1
IC50 (wild-type (WT) Mtb): > 200 µM

CCCC#Cc1cncc(-c2nnc(SCc3ccc(Cl)cc3)n2C)c1
IC50 (wild-type (WT) Mtb): 15 µM

CCCCCCC#Cc1ccc(-c2nnc(SCc3ccc(Cl)cc3)n2C)cn1
IC50 (wild-type (WT) Mtb): > 200 µM

CCCCCCC#Cc1cncc(-c2nnc(SCc3ccc(Cl)c(F)c3)[nH]2)c1
selectivity index (SI) (Vero cells): >23
CC50 at 72 hour [1]: > 125 µM
IC50 [2, 6]: 5.4 ± 0.03 µM

CCCCCCC#Cc1cncc(-c2nnc(SCc3ccc([N+](=O)[O-])cc3[N+](=O)[O-])n2C)c1
selectivity index (SI) (Vero cells): 27
CC50 at 72 hour [1]: 28 ± 1 µM
IC50 [2, 6]: 1.1 ± 0.1 µM

CCCCCCC#Cc1cncc(-c2nnc(SCc3cc([N+](=O)[O-])cc([N+](=O)[O-])c3)n2C2CC2)c1.Cl
PBS solubility (PBS solubility): 3.1 µM
plasma stability t1/2 (min), human (Plasma stability, human): >480; >480 min
liver microsomal stability t1/2 (min), mouse [3]: 5.9 min
liver microsomal stability t1/2 (min), human [4]: 3.0 min
plasma stability t1/2 (min), mouse (Plasma stability, mouse): >480; >480 min

CCCCCCC#Cc1cncc(-c2nnc(SCc3cc([N+](=O)[O-])cc([N+](=O)[O-])c3)n2C)c1 [3,5-dinitrobenzyl analog]
antimycobacterial activity (wild-type (WT) Mtb; text b333, MABA): 0.5 µM

NNC(=O)c1ccncc1 [INH, isoniazid, reference compound]
IC50 [2, 7]: 0.18 ± 0.014 µM
IC50 [5]: 0.12 ± 0.00051 µM

CCCCCCC#Cc1cncc(-c2nnc(SCc3ccc(Cl)cc3)n2C)c1 [drawing 51]
IC50 (wild-type (WT) Mtb): 5.3 µM

CCCCCCC#Cc1cncc(-c2nnc(SCc3ccc(Cl)c(F)c3)n2C)c1 [drawing 52]
IC50 (wild-type (WT) Mtb): 4.1 µM

CCCCCCC#Cc1cncc(-c2nnc(SCc3ccc(Br)cc3)n2C)c1 [drawing 55 R = Br]
IC50 (wild-type (WT) Mtb): 4.6 µM

CCCCCCC#Cc1cncc(-c2nnc(SCc3ccc(C(F)(F)F)cc3)n2C)c1 [drawing 55 R = CF3]
IC50 (wild-type (WT) Mtb): 44 µM

CCCCCCC#Cc1cncc(-c2nnc(SCc3ccc(C#N)cc3)n2C)c1 [drawing 55 R = CN]
IC50 (wild-type (WT) Mtb): 8.9 µM

CCCCCCC#Cc1cncc(-c2nnc(SCc3ccc(F)cc3)n2C)c1 [drawing 55 R = F]
IC50 (wild-type (WT) Mtb): 6.9 µM

CCCCCCC#Cc1cncc(-c2nnc(SCc3ccc(OC)cc3)n2C)c1 [drawing 55 R = MeO]
IC50 (wild-type (WT) Mtb): 8.7 µM

CCCCCCC#Cc1cncc(-c2nnc(SCc3ccc(C)cc3)n2C)c1 [drawing 55 R = Me]
IC50 (wild-type (WT) Mtb): 6.1 µM

CCCCCCC#Cc1cncc(-c2nnc(SCc3ccc([N+](=O)[O-])cc3)n2C)c1 [drawing 55 R = NO2]
IC50 (wild-type (WT) Mtb): 5.9 µM

CCCCCCC#Cc1cncc(-c2nnc(SCc3ccc(-c4ccccc4)cc3)n2C)c1 [drawing 55 R = Ph]
IC50 (wild-type (WT) Mtb): 197 µM

CCCCCCC#Cc1cncc(-c2nnc(SCCn3c([N+](=O)[O-])cnc3C)n2C)c1 [drawing 58]
IC50 (wild-type (WT) Mtb): 22 µM

CCCCCCC#Cc1cncc(-c2nnc(SCc3ccc([N+](=O)[O-])o3)n2C)c1 [drawing 61]
IC50 (wild-type (WT) Mtb): 0.55 µM

CCCCCCC#Cc1cncc(-c2nnc(SCc3cccc(Cl)c3)n2C)c1 [drawing 64 R = Cl]
IC50 (wild-type (WT) Mtb): 15 µM

CCCCCCC#Cc1cncc(-c2nnc(SCc3ccc(Cl)c(Cl)c3)n2C)c1 [drawing 67]
IC50 (wild-type (WT) Mtb): 6.8 µM

CCCCCCC#Cc1cncc(-c2nnc(SCc3cc(F)cc(F)c3)n2C)c1 [drawing 69]
IC50 (wild-type (WT) Mtb): 8 µM

CCCCCCC#Cc1cncc(-c2nnc(SCc3ccc(Cl)cc3)n2C2CC2)c1 [drawing 77]
IC50 (wild-type (WT) Mtb): 3.3 µM

CCCCCCC#Cc1cncc(-c2nnc(SCc3ccc([N+](=O)[O-])o3)n2C2CC2)c1 [drawing 80]
IC50 (wild-type (WT) Mtb): < 0.78 µM

CCCCCCC#Cc1cccc(-c2nnc(SCc3ccc(Cl)cc3)n2C)c1 [drawing 84]
IC50 (wild-type (WT) Mtb): 8.5 µM

C#Cc1cncc(-c2nnc(SCc3ccc(Cl)cc3)n2C)c1 [drawing 87]
IC50 (wild-type (WT) Mtb): 86 µM

Cn1c(SCc2ccc(Cl)cc2)nnc1-c1cncc(C#Cc2ccccc2)c1 [drawing 88]
IC50 (wild-type (WT) Mtb): 4 µM

CCCCCCC#Cc1cncc(-c2nnc(SCc3ccc(Cl)cc3)n2C)c1 [drawing 92]
IC50 [2, 7]: 1.5 ± 0.19 µM
IC50 [5]: 0.85 ± 0.043 µM

CCCCCCC#Cc1cncc(-c2nnc(SCc3ccc(C#N)cc3)n2C)c1 [drawing 93]
IC50 [2, 7]: 5.3 ± 1.17 µM
IC50 [5]: 2.3 ± 0.2 µM

CCCCCCC#Cc1cncc(-c2nnc(SCc3ccc([N+](=O)[O-])cc3)n2C)c1 [drawing 94]
IC50 [2, 7]: 2.9 ± 0.45 µM
IC50 [5]: 1.3 ± 0.15 µM

CCCCCCC#Cc1cncc(-c2nnc(SCc3cc([N+](=O)[O-])cc([N+](=O)[O-])c3)n2C)c1 [drawing 95]
IC50 [2, 7]: 0.17 ± 0.016 µM
IC50 [5]: 0.061 ± 0.012 µM

CCCCCCC#Cc1cncc(-c2nnc(SCc3ccc(Cl)cc3)n2C)c1 [drawing 129]
selectivity index (SI) (Vero cells): 9.3
CC50 at 72 hour [1]: 50 ± 5.5 µM
IC50 [2, 6]: 5.4 ± 0.5 µM

CCCCCCC#Cc1cncc(-c2nnc(SCc3ccc(C#N)cc3)n2C)c1 [drawing 130]
CC50 (Vero cells): > 100 µM
selectivity index (SI) (Vero cells): >3.7
IC50 [2, 6]: 27 ± 0.4 µM

CCCCCCC#Cc1cncc(-c2nnc(SCc3ccc([N+](=O)[O-])cc3)n2C)c1 [drawing 131]
selectivity index (SI) (Vero cells): 1.3
CC50 at 72 hour [1]: 27 ± 5.4 µM
IC50 [2, 6]: 22 ± 13 µM

CCCCCCC#Cc1cncc(-c2nnc(SCc3cc([N+](=O)[O-])cc([N+](=O)[O-])c3)n2C)c1 [drawing 133]
CC50 (Vero cells): > 100 µM
selectivity index (SI) (Vero cells): >294
IC50 [2, 6]: 0.34 ± 0.01 µM

CCCCCCC#Cc1cncc(-c2nnc(SCc3ccc([N+](=O)[O-])o3)n2C)c1 [drawing 135]
selectivity index (SI) (Vero cells): 314
CC50 at 72 hour [1]: 33 ± 2.9 µM
IC50 [2, 6]: 0.1 ± 0.01 µM

CCCCCCC#Cc1cncc(-c2nnc(SCc3ccc(Cl)cc3)n2C2CC2)c1 [drawing 136]
selectivity index (SI) (Vero cells): 4.8
CC50 at 72 hour [1]: 25 ± 2.5 µM
IC50 [2, 6]: 5.1 ± 0.7 µM

CCCCCCC#Cc1cncc(-c2nnc(SCc3ccc([N+](=O)[O-])o3)n2C2CC2)c1 [drawing 137]
selectivity index (SI) (Vero cells): 165
CC50 at 72 hour [1]: 7.8 ± 0.48 µM
IC50 [2, 6]: 0.05 ± 0.003 µM

Cn1c(SCc2ccc(Cl)cc2)nnc1-c1cncc(C#Cc2ccccc2)c1 [drawing 138]
CC50 (Vero cells): > 100 µM
selectivity index (SI) (Vero cells): >46
IC50 [2, 6]: 2.2 ± 0.4 µM

CCCCCCC#Cc1cncc(-c2nnc(SCc3ccc([N+](=O)[O-])o3)n2C)c1 [nitrofuran bearing analog]
antimycobacterial activity (in words) (wild-type (WT) Mtb; text b333-b334, MABA): most potent

COC(=O)[C@H]1[C@H]2C[C@@H]3c4[nH]c5cc(OC)ccc5c4CCN3C[C@H]2C[C@@H](OC(=O)c2cc(OC)c(OC)c(OC)c2)[C@@H]1OC [reserpine, reference compound]
PBS solubility (μM) (PBS solubility): 7.8^[d] μM
